Measured values from patent US9708359B2, “Pyrrolopyrimidine nucleosides and analogs thereof” (Chimerix, Inc., priority 2015, dated 2017).
Values after ≈ are worked out from the molar mass of the structure shown.

What was measured:
[1] = Cytotoxicity (CC50) in RAW cells; settings: mouse
[2] = tested on: MCMV; test: Plaque-reduction assay for MCMV; format: cell-based; settings: MEF
Method: Plaque-Reduction Assays for MCMV:
Mouse embryo fibroblast cells were prepared from mouse embryos using a procedure similar to that outlined above for HFF cells and suspended in tissue culture media as described above and seeded into plates and incubated. The medium was aspirated and the cell monolayers were infected with MCMV. The infected cells were then incubated at 37° C. for 1 h and the plates were rocked occasionally to ensure that the media covered the entire monolayer. Compounds were serially diluted in tissue maintenance cell culture media described above and the solutions were added to the infected monolayers. Infected monolayers were incubated for 7 d and then stained with Neutral Red solution as described above. Plaques were enumerated and EC50 values were interpolated from the experimental data by standard methods.
Mouse embryo fibroblast cells were prepared from mouse embryos using a procedure similar to that outlined above for HFF cells and suspended in tissue culture media as described above and seeded into 12 well plates and incubated at 37° C. for 24 h. The medium was aspirated and the cell monolayers were infected with the Smith strain of MCMV in a final volume of 0.2 mL in each of triplicate wells. The infected cells were then incubated at 37° C. for 1 h and the plates were rocked occasionally to ensure that the media covered the entire monolayer. […]

[3] = Solubility in water (rework study); format: physicochemical
Method: A brief rework study for compound 1, (containing 1.6% benzoic acid per AUC, HPLC) was executed in 10 vol of water (1 g in 10 mL):
All three experiments gave compound 1 with less than 0.1% benzoic acid (UAC, HPLC). The slurries were fluid, were easily stirred and filtration was fast. […] Without wishing to be bound by theory, a loss of NMT than 1% is expected (solubility 1 mg/mL). HPLC data for compound 1 were obtained with a method suitable for polar compounds using a Zorbax Eclipse Plus C18 column (water/ACN/TFA, 97.5/2.5/0.05). This is the same column used for steps 1 and 2.

## Cc1nc(N)c2c(C(N)=O)cn([C@@H]3O[C@H](CO)[C@@H](O)[C@H]3O)c2n1 [Compound 1, 4-amino-7-((2R,3R,4S,5R)-3,4-dihydroxy-5-(hydroxymethyl)tetrahydrofuran-2-yl)-2-methyl-7H-pyrrolo[2,3-d]pyrimidine-5-carboxamide]
[1]
  CC50: 114 µM
[2]
  EC50: > 100 µM
[3]
  solubility: 1000 µg/mL (≈ 3.09 mM)
